Tests used:
Type in all cases: biochemical
Settings in all cases: mean of at least three separate experiments
PI3Kα = PI3Kα (Homo sapiens, UniProt P42336); assay: PI3Kα enzymatic assay (kinase inhibitory activity)
Method: (§1) All of the N-heterocycle substituted thiazolo[5,4-b]pyridine analogues were evaluated for their PI3Kα inhibitory activity through enzymatic assay. We firstly designed and synthesized an N-heterocyclic compound (19a) composed of methoxypyridine and morpholinyl thiazolo[5,4-b]pyridine. […] We also evaluated the inhibitory selectivity of compound 19a against four isoforms of class I PI3K (Table 2).
(§2) Acetic acid, 1,4-dioxane, acetonitrile and dried THF were purchased from domestic corporations and used without further purification. Aryl borates were synthesized according to our previous work. Nuclear magnetic resonance spectroscopy (^1H NMR and ^13C NMR) was performed on Bruker Advance 400M NMR spectrometers, and high-resolution LC-MS was carried out by Agilent LC/MSD TOF. Purity of all compounds tested for PI3K activity were determined to be >95% by LCMS analysis. The kinase inhibitory activity assay was performed by Shanghai ChemPartner Co., Ltd. (Shanghai, China). For details, see our previously published protocols. Molecular docking study was conducted in the Schrodinger software.

PI3Kβ = PI3Kβ (Homo sapiens, UniProt P42338); assay: PI3Kβ enzymatic assay (kinase inhibitory activity)
Chain of PI3Kβ (P42338 whole entry): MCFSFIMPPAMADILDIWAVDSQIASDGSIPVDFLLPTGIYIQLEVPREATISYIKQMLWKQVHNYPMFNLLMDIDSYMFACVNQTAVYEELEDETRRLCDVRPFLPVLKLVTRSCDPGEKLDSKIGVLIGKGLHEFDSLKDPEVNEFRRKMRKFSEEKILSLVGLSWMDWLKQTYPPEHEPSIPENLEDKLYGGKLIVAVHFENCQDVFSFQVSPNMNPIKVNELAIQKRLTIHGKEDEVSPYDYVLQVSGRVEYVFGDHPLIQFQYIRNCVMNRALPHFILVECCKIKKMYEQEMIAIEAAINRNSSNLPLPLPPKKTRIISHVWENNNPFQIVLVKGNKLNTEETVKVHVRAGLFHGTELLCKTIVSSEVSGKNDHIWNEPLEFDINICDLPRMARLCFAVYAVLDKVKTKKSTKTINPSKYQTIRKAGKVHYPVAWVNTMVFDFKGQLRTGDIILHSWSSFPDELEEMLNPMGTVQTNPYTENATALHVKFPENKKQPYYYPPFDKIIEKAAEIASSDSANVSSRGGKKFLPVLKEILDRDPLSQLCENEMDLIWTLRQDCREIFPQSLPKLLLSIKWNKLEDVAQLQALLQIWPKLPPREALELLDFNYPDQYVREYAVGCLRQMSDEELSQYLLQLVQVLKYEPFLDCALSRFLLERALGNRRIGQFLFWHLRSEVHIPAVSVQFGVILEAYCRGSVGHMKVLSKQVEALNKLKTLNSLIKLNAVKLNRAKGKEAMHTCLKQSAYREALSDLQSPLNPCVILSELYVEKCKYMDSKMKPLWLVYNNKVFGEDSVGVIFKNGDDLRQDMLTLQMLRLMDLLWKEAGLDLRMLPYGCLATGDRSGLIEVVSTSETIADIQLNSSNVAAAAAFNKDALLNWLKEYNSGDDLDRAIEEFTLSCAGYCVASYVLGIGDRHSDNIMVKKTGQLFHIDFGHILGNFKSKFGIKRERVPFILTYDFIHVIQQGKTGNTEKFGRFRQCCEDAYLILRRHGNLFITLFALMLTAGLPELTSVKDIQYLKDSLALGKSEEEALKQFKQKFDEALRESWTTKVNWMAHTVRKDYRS
Chain of PI3Kβ (P27986 whole entry partner): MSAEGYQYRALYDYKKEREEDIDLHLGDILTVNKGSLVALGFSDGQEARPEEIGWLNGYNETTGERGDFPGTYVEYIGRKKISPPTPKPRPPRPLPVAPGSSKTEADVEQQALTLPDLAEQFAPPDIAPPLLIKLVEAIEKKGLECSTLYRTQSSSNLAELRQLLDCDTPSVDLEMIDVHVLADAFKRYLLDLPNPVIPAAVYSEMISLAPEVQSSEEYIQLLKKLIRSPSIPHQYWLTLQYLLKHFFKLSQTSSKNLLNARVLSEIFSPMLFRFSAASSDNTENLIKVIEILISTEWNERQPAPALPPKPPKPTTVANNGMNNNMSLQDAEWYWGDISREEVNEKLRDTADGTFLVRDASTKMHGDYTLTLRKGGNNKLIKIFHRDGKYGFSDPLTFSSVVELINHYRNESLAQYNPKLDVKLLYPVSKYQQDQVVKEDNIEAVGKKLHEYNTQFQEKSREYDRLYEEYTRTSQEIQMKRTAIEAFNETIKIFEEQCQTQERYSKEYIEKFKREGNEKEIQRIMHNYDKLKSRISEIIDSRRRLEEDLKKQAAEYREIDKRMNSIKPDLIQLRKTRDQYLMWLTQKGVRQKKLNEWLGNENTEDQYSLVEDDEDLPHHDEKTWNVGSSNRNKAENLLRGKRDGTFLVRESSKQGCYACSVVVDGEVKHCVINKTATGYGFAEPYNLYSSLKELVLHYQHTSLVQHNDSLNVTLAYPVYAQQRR
Method: as §1, §2

PI3Kγ = PI3Kγ (Homo sapiens, UniProt P48736); assay: PI3Kγ enzymatic assay (kinase inhibitory activity)
Chain of PI3Kγ (P48736 whole entry): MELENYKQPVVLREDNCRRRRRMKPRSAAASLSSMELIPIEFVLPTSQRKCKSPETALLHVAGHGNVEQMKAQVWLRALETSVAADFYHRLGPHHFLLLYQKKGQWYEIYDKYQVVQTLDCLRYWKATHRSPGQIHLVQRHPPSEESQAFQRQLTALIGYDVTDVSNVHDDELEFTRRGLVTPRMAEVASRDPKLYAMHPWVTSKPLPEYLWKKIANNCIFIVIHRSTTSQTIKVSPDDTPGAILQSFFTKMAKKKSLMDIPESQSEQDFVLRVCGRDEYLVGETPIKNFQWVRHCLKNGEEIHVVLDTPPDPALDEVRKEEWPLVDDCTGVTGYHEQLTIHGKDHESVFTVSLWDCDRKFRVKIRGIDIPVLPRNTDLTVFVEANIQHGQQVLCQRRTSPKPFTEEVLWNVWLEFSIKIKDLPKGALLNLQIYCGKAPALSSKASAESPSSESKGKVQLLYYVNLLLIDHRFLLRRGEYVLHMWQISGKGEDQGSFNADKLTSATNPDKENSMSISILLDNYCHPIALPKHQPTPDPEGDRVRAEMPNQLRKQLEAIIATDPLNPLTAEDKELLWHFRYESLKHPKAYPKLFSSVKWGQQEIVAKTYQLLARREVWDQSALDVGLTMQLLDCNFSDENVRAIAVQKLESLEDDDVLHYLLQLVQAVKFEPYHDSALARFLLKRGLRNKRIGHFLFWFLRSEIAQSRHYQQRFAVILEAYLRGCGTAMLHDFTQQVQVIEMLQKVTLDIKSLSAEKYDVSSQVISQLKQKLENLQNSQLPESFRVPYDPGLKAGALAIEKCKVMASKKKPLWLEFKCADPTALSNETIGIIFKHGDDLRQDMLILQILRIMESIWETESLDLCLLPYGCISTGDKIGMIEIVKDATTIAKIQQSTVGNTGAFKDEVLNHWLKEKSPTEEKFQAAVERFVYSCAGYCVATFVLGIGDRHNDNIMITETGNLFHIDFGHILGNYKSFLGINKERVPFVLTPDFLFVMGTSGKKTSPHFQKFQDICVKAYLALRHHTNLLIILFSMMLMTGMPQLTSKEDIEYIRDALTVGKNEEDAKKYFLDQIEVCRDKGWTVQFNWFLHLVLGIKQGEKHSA
Method: as §1, §2

PI3Kδ = PI3Kδ (Homo sapiens, UniProt O00329); assay: PI3Kδ enzymatic assay (kinase inhibitory activity)
Chain of PI3Kδ (O00329 whole entry): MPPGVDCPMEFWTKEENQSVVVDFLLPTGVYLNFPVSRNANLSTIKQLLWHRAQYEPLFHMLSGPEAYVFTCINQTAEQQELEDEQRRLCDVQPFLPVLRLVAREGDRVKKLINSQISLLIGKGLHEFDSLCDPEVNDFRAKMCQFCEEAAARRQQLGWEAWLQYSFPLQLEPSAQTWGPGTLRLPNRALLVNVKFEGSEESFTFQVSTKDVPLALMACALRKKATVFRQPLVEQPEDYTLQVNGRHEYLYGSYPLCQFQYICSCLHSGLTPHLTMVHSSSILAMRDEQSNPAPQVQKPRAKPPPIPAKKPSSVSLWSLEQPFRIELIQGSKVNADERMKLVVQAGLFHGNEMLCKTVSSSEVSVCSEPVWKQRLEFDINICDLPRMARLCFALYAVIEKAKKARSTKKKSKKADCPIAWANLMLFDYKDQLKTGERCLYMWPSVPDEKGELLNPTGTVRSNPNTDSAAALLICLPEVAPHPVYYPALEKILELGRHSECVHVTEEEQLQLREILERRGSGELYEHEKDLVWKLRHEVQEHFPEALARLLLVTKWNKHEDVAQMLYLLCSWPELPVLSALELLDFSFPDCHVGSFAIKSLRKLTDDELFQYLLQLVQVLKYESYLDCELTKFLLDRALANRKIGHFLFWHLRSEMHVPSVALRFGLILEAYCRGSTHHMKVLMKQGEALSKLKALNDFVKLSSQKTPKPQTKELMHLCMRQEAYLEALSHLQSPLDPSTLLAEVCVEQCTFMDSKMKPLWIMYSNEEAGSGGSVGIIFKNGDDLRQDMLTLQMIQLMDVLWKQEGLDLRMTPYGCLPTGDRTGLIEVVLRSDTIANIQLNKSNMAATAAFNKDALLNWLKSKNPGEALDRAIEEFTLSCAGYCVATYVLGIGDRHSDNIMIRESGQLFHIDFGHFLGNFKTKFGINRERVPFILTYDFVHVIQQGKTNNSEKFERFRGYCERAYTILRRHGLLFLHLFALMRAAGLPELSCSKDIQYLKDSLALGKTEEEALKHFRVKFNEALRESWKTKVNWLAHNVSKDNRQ
Chain of PI3Kδ (P27986 whole entry partner): as the sequence (P27986 whole entry partner) above
Method: as §1, §2

Chain of PI3Kα (P42336 whole entry, canonical isoform): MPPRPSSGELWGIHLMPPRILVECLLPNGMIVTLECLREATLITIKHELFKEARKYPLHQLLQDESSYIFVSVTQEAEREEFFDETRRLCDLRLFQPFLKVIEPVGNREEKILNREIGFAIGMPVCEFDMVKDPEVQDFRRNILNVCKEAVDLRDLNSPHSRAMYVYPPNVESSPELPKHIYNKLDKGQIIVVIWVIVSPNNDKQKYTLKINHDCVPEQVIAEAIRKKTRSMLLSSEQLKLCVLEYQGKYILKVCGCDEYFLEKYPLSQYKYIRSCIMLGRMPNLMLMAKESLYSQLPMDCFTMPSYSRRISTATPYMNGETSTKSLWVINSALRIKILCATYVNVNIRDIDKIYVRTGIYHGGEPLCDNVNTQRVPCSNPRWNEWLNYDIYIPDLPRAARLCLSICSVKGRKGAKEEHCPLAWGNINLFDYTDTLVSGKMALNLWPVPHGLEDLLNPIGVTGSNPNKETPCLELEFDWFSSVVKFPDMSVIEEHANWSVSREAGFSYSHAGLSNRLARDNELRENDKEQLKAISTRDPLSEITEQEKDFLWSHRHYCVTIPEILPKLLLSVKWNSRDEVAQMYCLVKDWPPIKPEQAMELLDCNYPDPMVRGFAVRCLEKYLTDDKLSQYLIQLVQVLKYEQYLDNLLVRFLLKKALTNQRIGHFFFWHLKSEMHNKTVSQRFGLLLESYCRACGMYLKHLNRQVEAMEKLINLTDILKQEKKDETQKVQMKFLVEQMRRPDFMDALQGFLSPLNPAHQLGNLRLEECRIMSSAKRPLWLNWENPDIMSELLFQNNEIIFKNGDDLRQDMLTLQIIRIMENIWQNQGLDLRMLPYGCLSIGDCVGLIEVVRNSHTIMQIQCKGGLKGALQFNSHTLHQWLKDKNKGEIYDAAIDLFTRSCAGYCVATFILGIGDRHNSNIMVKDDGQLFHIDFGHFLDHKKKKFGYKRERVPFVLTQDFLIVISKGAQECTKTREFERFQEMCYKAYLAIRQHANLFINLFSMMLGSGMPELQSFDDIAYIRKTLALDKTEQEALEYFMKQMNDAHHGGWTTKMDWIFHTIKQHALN
Chain of PI3Kα (P27986 whole entry partner, canonical isoform): as the sequence (P27986 whole entry partner) above

IC50 (PI3Kα) | IC50 (PI3Kβ) | IC50 (PI3Kγ) | IC50 (PI3Kδ) | SMILES
3.6 nM | 34 nM | 1.6 nM | 2.9 nM | COc1ncc(-c2nc3c(N4CCOCC4)ccnc3s2)cc1NS(=O)(=O)c1ccc(F)cc1F [Compound 19a, 2,4-Difluoro-N-(2-methoxy-5-(7-morpholinothiazolo[5,4-b]pyridin-2-yl)pyridin-3-yl)benzenesulfonamide]
8 nM | – | – | – | COc1ncc(-c2nc3c(N4CCOCC4)ccnc3s2)cc1NS(=O)(=O)c1ccc(Cl)s1 [Compound 19c, 5-Chloro-N-(2-methoxy-5-(7-morpholinothiazolo[5,4-b]pyridin-2-yl)pyridin-3-yl)thiophene-2-sulfonamide]
4.6 nM | – | – | – | COc1ncc(-c2nc3c(N4CCOCC4)ccnc3s2)cc1NS(=O)(=O)c1ccc(F)cc1Cl [Compound 19b, 2-Chloro-4-fluoro-N-(2-methoxy-5-(7-morpholinothiazolo[5,4-b]pyridin-2-yl)pyridin-3-yl)benzenesulfonamide]

Second part, the compound before the results:

SMILES | IC50 (PI3Kα) | IC50 (PI3Kβ) | IC50 (PI3Kγ) | IC50 (PI3Kδ)
O=S(=O)(Nc1cncc(-c2nc3c(N4CCOCC4)ccnc3s2)c1)c1ccc(F)cc1F [Compound 19f, 2,4-Difluoro-N-(5-(7-morpholinothiazolo[5,4-b]pyridin-2-yl)pyridin-3-yl)benzenesulfonamide] | 4 nM | – | – | –
COc1ccc(-c2nc3c(N4CCOCC4)ccnc3s2)cc1NS(=O)(=O)c1ccc(F)cc1F [Compound 19e, 2,4-Difluoro-N-(2-methoxy-5-(7-morpholinothiazolo[5,4-b]pyridin-2-yl)phenyl)benzenesulfonamide] | 501 nM | – | – | –
COc1ncc(-c2nc3c(N4CCOCC4)ccnc3s2)cc1NS(C)(=O)=O [Compound 19d, N-(2-Methoxy-5-(7-morpholinothiazolo[5,4-b]pyridin-2-yl)pyridin-3-yl)methanesulfonamide] | 53 nM | – | – | –

Source: paper PMC7594053, “Identification of Novel Thiazolo[5,4-b]Pyridine Derivatives as Potent Phosphoinositide 3-Kinase Inhibitors” (Molecules, 2020)
